Data set [1] has as its system Human immunodeficiency virus 1. In words: Antiviral activity against HIV1 3B harboring reverse transcriptase Y181C mutant infected in human MT2 cells assessed as protection against viral infection by MTT method. Format: functional, organism-based. (In general: Tetrazolium dyes change colour on reduction, which living cells bring about.)
The subject of data set [2] is Human immunodeficiency virus 1. Put plainly: Antiviral activity against HIV1 3B harboring reverse transcriptase K103N/Y181C double mutant infected in human MT2 cells assessed as protection against viral infection by MTT method. Format: functional, organism-based.
A short description of data set [3]: Cytotoxicity against human MT2 cells assessed as growth inhibition by MTT method. Format: cell-based.
Data set [4] concerns Human immunodeficiency virus 1. In words: Antiviral activity against HIV1 3B infected in human MT2 cells assessed as protection against viral infection by MTT method. Format: functional, organism-based. As to conditions: Human immunodeficiency virus 1, 3B; call rule not given here.
Data set [5] can be described thus: Aqueous solubility of compound in pH 6.5 solution by shake flask method. Format: physicochemical. As to conditions: aqueous solution pH 6.5, pH 6.5.
The mark [6] stands for this setting: Human immunodeficiency virus 1, 3B, MT2, read-out: EC50.

The text below walks through data of ChEMBL document CHEMBL4477247, “Computer-aided discovery of anti-HIV agents” (Bioorg Med Chem, 2016).

Values after ≈ are worked out from the molar mass of the structure shown.

As for `Cc1cc(/C=C/C#N)cc(Oc2cc(Nc3ncnc(C4CC4)n3)ccc2Cl)c1`, in data set [1] (setting [6]), the half-maximal effective concentration (EC50) was determined as 4.9 nM.
On to `N#Cc1cc2c(Oc3ccccc3OCCn3ccc(=O)[nH]c3=O)cccn2c1`, for which the EC50 turned out to be 11 nM in data set [2] (setting [6]), 0.38 nM in data set [4] and 310 nM in data set [1] (setting [6]). Also, the CC50 in data set [3] was over 100 µM.
For `N#Cc1cc2c(Oc3ccccc3OCCn3ccc(=O)[nH]c3=O)cc(Cl)cc2o1`, in that order: 260 nM, 19 nM, 1900 nM and over 100 µM.
Consider `CC(C)=CCOc1cc(Nc2ncnc3occc23)ccc1Cl`, for which the CC50 in data set [3] was 17 µM. In data set [4], the EC50 is 5 nM.
As for `Cc1ccnc2c1NC(=O)c1cccnc1N2C1CC1` [NEVIRAPINE], the EC50 result in data set [2] and in data set [1] was “Not Active” throughout. In data set [3], the 50% cytotoxic concentration (CC50) was over 100 µM.
Regarding `CC(C)=CCOc1cc(Nc2nccc3cc[nH]c23)ccc1Cl`, the CC50 in data set [3] worked out at 9.2 µM. Besides, the EC50 in data set [4] was 900 nM.
Consider `Cc1ccc(OCCn2ccc(=O)[nH]c2=O)c(Cc2ccccc2)c1`, for which the half-maximal effective concentration (EC50) in data set [4] was 4800 nM.
Turning to `N#Cc1ccc2c(Oc3ccccc3OCCn3ccc(=O)[nH]c3=O)cc(F)cc2c1`, the thermodynamic solubility in data set [5] is 9.1 µg/mL (≈ 21.8 µM).
`COc1ccnc(Nc2ccc(Cl)c(Oc3ccccc3)c2)n1`: the half-maximal effective concentration (EC50) in data set [4] came to 2500 nM.
Turning to `CSc1ccnc(Nc2ccc(C#N)c(Oc3cccc(/C=C/C#N)c3)c2)n1`, the CC50 in data set [3] was found to be 1.2 µM. For the same molecule, the 50% effective concentration (EC50) came to 48 nM in data set [4] and 250 nM in data set [1] (setting [6]).
For the molecule `CC(C)=CCOc1cc(Nc2nccc3cccn23)ccc1Cl`, the 50% cytotoxic concentration (CC50) in data set [3] came to 17 µM. The EC50 in data set [4] is 130 nM.
For `Cc1cc(Oc2ccccc2OCCn2ccc(=O)[nH]c2=O)c2cc(C#N)[nH]c2c1`, the EC50 is 800 nM in data set [2] (setting [6]), 10 nM in data set [4] and “Not Active” in data set [1].
With `Cc1cc(/C=C/C#N)cc(Oc2cc(Nc3ncnc(C4CC4)n3)ccc2C)c1`, the EC50 was 1.7 nM in data set [4] and 15 nM in data set [1] (setting [6]).
As for `CC(C)=CCOc1cc(Nc2nccn3cccc23)ccc1Cl`, in data set [3], the CC50 was found to be 20 µM. The EC50 in data set [4] was found to be 19 nM.
With `N#Cc1ccc2c(Oc3ccc(F)cc3OCCn3ccc(=O)[nH]c3=O)cc(F)cc2c1`, the solubility (thermodynamic) in data set [5] is 82.9 µg/mL (≈ 190 µM).

The EC50 is the midpoint of the concentration-response curve. The term CC50 denotes the concentration at which the toxic effect on the cells reaches its halfway point. A word on the solubility (thermodynamic): it is the concentration in solution at equilibrium with solid.
